“Also recorded” adds a separate entry of the source. Like-named read-outs stand apart in the source and are kept apart here.
Experiments:
DENV replicon = DENV replicon cell assay (Renilla luciferase); assay type: cell-based, Dengue virus (DENV); settings: for EC50: Dengue virus; for potentiation of anti-replicon activity (in words): purine nucleobase combined with 6MMPR and/or 6MMPR prodrugs
Experimental: (§1) The following cell lines were used in this study: (i) Huh7 was purchased from JCRB Cell Bank (Seikisui XenoTech, Kansas City, MO, USA) and cultured in Minimum Essential Medium (MEM) supplemented with 10% fetal bovine serum (FBS), and 1× non-essential amino acids (NEAA), 1 mM sodium pyruvate, 100 IU penicillin/streptomycin per mL, 5 µg/mL plasmocin (InvivoGen, San Diego, CA, USA), 1× GlutaMAX, and (ii) BHK pD2-hRucPac-2ATG30 DENV replicon cells were a gift from M. Diamond (Washington University School of Medicine) and cultured in Dulbecco’s modified Eagle’s medium (DMEM) supplemented with 10% FBS, 100 IU penicillin/streptomycin per mL, 5 µg/mL plasmocin, 1× GlutaMAX, and 3 µg/mL puromycin (InvivoGen). (iii) A549 Ace2 TMPRSS2 cells were provided by M. Saeed (Boston University) and grown in DMEM supplemented with 10% FBS, 100 IU penicillin/streptomycin per mL, 10 mM HEPES, 1× NEAA, 1× GlutaMAX, 1 mM sodium pyruvate, 5 µg/mL plasmocin, 0.5 µg/mL puromycin, and 0.5 µg/mL blasticidin (InvivoGen).
The DENV replicon assay was performed as described. Briefly, DENV replicon cells were plated at 1500–2000 cells per well […] of a 96-well dish (Corning, USA) plate the day before use. The next day, compounds were added and cells incubated at 37 °C, 5% CO2, in a humidified incubator for three days. The cells were the washed with PBS and Complete Promega Renilla reagent was added (Promega E2720, Madison, USA, 1 µL Renilla-Glo Substrate + 99 µL Renilla-Glo Buffer + 100 µL phenol-red-free DMEM supplemented with 10% FBS per well). Cells were lysed for 10 min at room temp and 160 µL of lysate per well was transferred to wells of a 96-well opaque white plate (Falcon 353296, Corning, USA), and luminescence was measured using a BioTek (Winooski, USA) Neo2 plate reader.

[1] = Cell viability assay (MTS); assay type: cell-based; settings: hamster
Experimental: as §1
(§2) Cell viability assays were performed as described in [9, 10, 23]. Briefly, DENV replicon cells were plated at 1500–2000 cells per well of a 96-well dish plate (Corning, NY, USA) the day before use. The next day, compounds were added and cells incubated at 37 °C, 5% CO2, in a humidified incubator for three days. The cells were washed with phosphate-buffered saline (PBS) and incubated with the MTS reagent (Promega G5430, Madison, WI, USA) as per the manufacturer’s instructions. The plates were read at a 490 nm wavelength at 30 min intervals in a BioTek (Winooski, VT, USA) Neo2 plate reader.

[2] = system: DENV replicon cells (BHK pD2-hRucPac-2ATG30); assay: Cell viability assay (MTS); assay type: cell-based; settings: nucleobase combined with potentiators (6MMPR and prodrugs)
Experimental: as §1, §2

DENV = system: DENV; design: method as in PMID 29672522; settings: cited from earlier work
[3] = system: ZIKV PAN1 Nluc reporter virus; assay: ZIKV nanoluc reporter virus assay in A549 Ace2 TMPRSS2 cells; assay type: cell-based, Zika virus (ZIKV); settings: three days
Experimental: (§3) Figure 5 Flavivirus inhibition by the nucleobase 2-thiouracil (2SU) and the corresponding nucleoside 2-thiouridine (2SUridine). (A) Dose–response assay for inhibition of a ZIKV nanoluc reporter. Cells were inoculated with reporter virus for two hours, washed, and then compound-added. Three days later, cells were lysed, and the luciferase activity was analyzed. (B) DENV-induced cytopathic effects in compound-treated cells. Cells were inoculated with DENV for two hours, washed, and compound-added for five days. A neutral red assay was performed to determine cell viability. (C) Same as in (B), except the cells are not treated with virus. NITD = NITD008 a positive-control DENV inhibitor.
The following viruses were used in this study: (i) ZIKV PAN1 Nluc reporter virus has a nanoluc gene inserted into the viral genome as described. The virus was propagated and virus preps tittered as described. (ii) DENV type 2 New Guinea C strain (VR-1584) was obtained from ATCC (Manassas, VA, USA) and propagated in C6/36 mosquito cells as described.
The ZIKV nanoluc reporter virus assay was performed as described. Briefly, A549 Ace2 TMPRSS2 cells were plated into 96-well plates at 15,000 per well the night before use. […] The luciferase levels were measured using a Neo 2 plate reader (BioTek, Winooski, USA).

[4] = system: DENV type 2 New Guinea C strain; assay: DENV CPE assay in Huh7 cells (neutral red); assay type: cell-based, Dengue virus (DENV); settings: five days
Experimental: as §3
The following viruses were used in this study: (i) ZIKV PAN1 Nluc reporter virus has a nanoluc gene inserted into the viral genome as described. The virus was propagated and virus preps tittered as described. […]
Huh7 cells were plated into 96-well plates at 10,000 cells per well the day before use. […] The compounds were removed, and the viability of the cells was measured using a neutral red staining assay. […] Neutral red destain buffer (50% ethanol, 49% H2O, and 1% glacial acetic acid) was added at 100 µL per well and the plates were read at 540 nm in a Molecular Device (San Jose, CA, USA) M5e plate reader.

[5] = 72 h, Table 3, nucleobase dose-response plus vehicle (DMSO)
[6] = 72 h, compound alone, DENV BHK replicon cells, luciferase, three days
[7] = nucleobase dose-response +6MMPR 0.065 μM
[8] = nucleobase dose-response +Prdg 1 0.09 μM
[9] = nucleobase dose-response +Prdg 2 1.5 μM
[10] = nucleobase dose-response +Prdg 3 1.4 μM
[11] = Table 3, nucleobase dose-response plus vehicle (DMSO)
[12] = compound alone, DENV replicon cells, MTS, three days

NC(=O)c1ncc[nH]c1=O [Prdg T-1105]
EC50 (DENV replicon; [5]): 15 µM
EC50 (DENV replicon; [6]): 13 µM
EC50 (DENV replicon; [7]): 11 µM
EC50 (DENV replicon; [8]): 8.3 µM
EC50 (DENV replicon; [9]): 10 µM
EC50 (DENV replicon; [10]): 9.6 µM
potentiation of anti-replicon activity (in words) (DENV replicon): strongly potentiated
CC50 at 3 days [1, 11]: > 167 µM
CC50 at 3 days [1, 12]: > 500 µM
CC50 at 3 days [1, 7]: > 167 µM
CC50 at 3 days [1, 8]: > 167 µM
CC50 at 3 days [1, 9]: > 167 µM
CC50 at 3 days [1, 10]: > 167 µM

CSc1ncnc2c1ncn2[C@@H]1O[C@H](COC(=O)C(C)C)[C@@H](OC(=O)C(C)C)[C@H]1OC(=O)C(C)C [Prdg 1]
EC50 (DENV replicon; [6]): 0.26 µM
CC50 at 3 days [1, 12]: 2.6 µM

CSc1ncnc2c1ncn2[C@@H]1O[C@H](COC(=O)N(C)C)[C@@H](OC(=O)C(C)C)[C@H]1OC(=O)C(C)C [Prdg 3]
EC50 (DENV replicon; [6]): 2.3 µM
CC50 at 3 days [1, 12]: 2.4 µM

Cc1c(-c2ccc(-c3ccccc3F)cc2)nc2ccc(F)cc2c1C(=O)O [Brequinar]
EC50 (DENV replicon; [6]): 3 µM
CC50 at 3 days [1, 12]: 4.5 µM

CC(C)C(=O)OC[C@H]1O[C@@H](n2ccc(NO)nc2=O)[C@H](O)[C@@H]1O [Molnupiravir]
EC50 (DENV replicon; [6]): 6.2 µM
CC50 at 3 days [1, 12]: 53 µM

NC(=O)c1nc[nH]n1 [Ribavirin nucleobase]
EC50 (DENV replicon; [5]): 5.7 µM
EC50 (DENV replicon; [6]): 5.7 µM
EC50 (DENV replicon; [7]): 3.4 µM
EC50 (DENV replicon; [8]): 2.3 µM
EC50 (DENV replicon; [9]): 0.88 µM
EC50 (DENV replicon; [10]): 2.6 µM
potentiation of anti-replicon activity (in words) (DENV replicon): can be potentiated
CC50 at 3 days [1, 11]: > 50 µM
CC50 at 3 days [1, 12]: > 100 µM
CC50 at 3 days [1, 7]: > 50 µM
CC50 at 3 days [1, 8]: > 50 µM
CC50 at 3 days [1, 9]: > 50 µM
CC50 at 3 days [1, 10]: > 50 µM
toxicity of combination (in words) [2]: conferred some toxicity not shown by either compound alone
anti-DENV activity (in words) (DENV): similarly strong antiviral activity
cytotoxicity (in words) (DENV): considerably less cytotoxic than ribavirin
anti-DENV activity (in words) (DENV; listed as ribavirin nucleobase): strong
cytotoxicity (in words) (DENV; listed as ribavirin nucleobase): non-cytotoxic

CSc1ncnc2c1ncn2[C@@H]1O[C@H](CO)[C@@H](O)[C@H]1O [Prdg 6MMPR, 6-methylmercaptopurine riboside]
EC50 (DENV replicon; [6]): 0.21 µM
CC50 at 3 days [1, 12]: 0.21 µM

CSc1ncnc2c1ncn2[C@@H]1O[C@H](COC(=O)N(C)C)[C@@H](O)[C@H]1O [Prdg 2]
EC50 (DENV replicon; [6]): 2.5 µM
CC50 at 3 days [1, 12]: 5.4 µM

O=c1ccn([C@@H]2O[C@H](CO)[C@@H](O)[C@H]2O)c(=S)[nH]1 [2-thiouridine]
EC50 (DENV replicon; [6]): > 50 µM
anti-replicon activity (in words) (DENV replicon; compound alone, DENV BHK replicon cell line): we did not observe activity
CC50 at 3 days [1, 12]: > 50 µM
antiviral activity, ZIKV reporter virus replication (in words) [3]: observe antiviral activity
antiviral activity, DENV-induced cytopathic effects (in words) [4]: observe antiviral activity

O=c1cnn([C@@H]2O[C@H](CO)[C@@H](O)[C@H]2O)c(=O)[nH]1 [Prdg 6-azauridine, 6-azauridine]
EC50 (DENV replicon; [6]): 1.9 µM
CC50 at 3 days [1, 12]: 8.8 µM

O=c1[nH]cc(F)c(=O)[nH]1 [5-fluorouracil]
EC50 (DENV replicon; [6]): 0.74 µM
CC50 at 3 days [1, 12]: 0.93 µM

NC(=O)c1nc(F)c[nH]c1=O [Favipiravir]
EC50 (DENV replicon; [5]): 128 µM
EC50 (DENV replicon; [6]): 114 µM
EC50 (DENV replicon; [7]): 63 µM
EC50 (DENV replicon; [8]): 51 µM
EC50 (DENV replicon; [9]): 47 µM
EC50 (DENV replicon; [10]): 46 µM
potentiation of anti-replicon activity (in words) (DENV replicon; listed as FAV): clear enhanced effect; also recorded: reduction in the EC50 value
CC50 at 3 days [1, 11]: > 500 µM
CC50 at 3 days [1, 12]: > 500 µM
CC50 at 3 days [1, 7]: > 500 µM
CC50 at 3 days [1, 8]: > 500 µM
CC50 at 3 days [1, 9]: > 500 µM
CC50 at 3 days [1, 10]: > 500 µM

O=c1cc[nH]c(=S)[nH]1 [Prdg 2-thiouracil, 2-thiouracil]
EC50 (DENV replicon; [6]): > 50 µM
CC50 at 3 days [1, 12]: > 50 µM

— PMC11767801, “Purine but Not Pyrimidine De Novo Nucleotide Biosynthesis Inhibitors Strongly Enhance the Antiviral Effect of Corresponding Nucleobases Against Dengue Virus” (Molecules, 2025)
